Source: PubChem BioAssay AID248 (DTP/NCI, 2004)
Values joined by “and” are separate entries in the source; they are usually repeats but may differ in a detail not shown here. Equal entries are not always repeated. Inconclusive results and toxic doses are left out. Cut-off read from the data, not from the text of the source: active = T/C of 150% or more; inactive = T/C below 125%. Peptide text beside a SMILES is read from it. * marks the point of attachment. Cbz = O=C(OCc1ccccc1)*; NHNH2 = NN*

System: L1210 leukemia ip in BDF1 mice, survival T/C
Experiment: NCI In Vivo Anticancer Drug Screen. Data for tumor model L1210 Leukemia (intraperitoneal) in B6D2F1 (BDF1) mice
Conditions: endpoint: mean survival time, higher = longer survival
Procedure, shortened: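 Value reflects the ratio of survival in compound-treated mice to survival in vehicle-treated controls, with both groups carrying the same transplanted tumor.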

[1] = dose: 50.0 mg/kg/injection, schedule: Q04DX003 (ip), vehicle: Klucel (hydroxypropylcellulose) (HPC)
[2] = dose: 100.0 mg/kg/injection, schedule: Q04DX003 (ip), vehicle: Klucel (hydroxypropylcellulose) (HPC)
[3] = dose: 200.0 mg/kg/injection, schedule: Q04DX003 (ip), vehicle: Klucel (hydroxypropylcellulose) (HPC)
[4] = dose: 100.0 mg/kg/injection, schedule: Q01DX001 (ip), vehicle: saline
[5] = dose: 200.0 mg/kg/injection, schedule: Q01DX001 (ip), vehicle: saline
[6] = dose: 400.0 mg/kg/injection, schedule: Q01DX001 (ip), vehicle: saline

Measured: T/C

CSc1ccc(NC(=O)Nc2ccc(N=Nc3ccccc3)cc2)cc1
inactive: dose: 12.5 mg/kg/injection, schedule: Q01DX009 (ip), vehicle: saline with Tween-80 95 % of control | dose: 25.0 mg/kg/injection, schedule: Q01DX009 (ip), vehicle: saline with Tween-80 92 % of control | dose: 50.0 mg/kg/injection, schedule: Q01DX009 (ip), vehicle: saline with Tween-80 95 % of control | [1] 87 % of control | dose: 75.0 mg/kg/injection, schedule: Q01DX009 (ip), vehicle: saline with Tween-80 106 % of control | dose: 100.0 mg/kg/injection, schedule: Q01DX001 (ip), vehicle: other 89 % of control | dose: 115.0 mg/kg/injection, schedule: Q01DX009 (ip), vehicle: saline with Tween-80 92 % of control | dose: 170.0 mg/kg/injection, schedule: Q01DX009 (ip), vehicle: saline with Tween-80 90 % of control | dose: 200.0 mg/kg/injection, schedule: Q01DX001 (ip), vehicle: other 89 % of control

CN(C)CCCN1CCC2(CC1)C(C#N)C(=O)NC(=O)C2C#N (centres undefined)
inactive: dose: 100.0 mg/kg/injection, schedule: Q04DX002 (ip), vehicle: saline 92 % of control | dose: 200.0 mg/kg/injection, schedule: Q04DX002 (ip), vehicle: saline 100 % of control | dose: 400.0 mg/kg/injection, schedule: Q04DX002 (ip), vehicle: saline 111 % of control

Cc1noc(N)c1N
inactive: dose: 100.0 mg/kg/injection, schedule: Q01DX009 (ip), vehicle: water 105 % of control | dose: 100.0 mg/kg/injection, schedule: Q04DX003 (ip), vehicle: water 93 % of control | dose: 200.0 mg/kg/injection, schedule: Q01DX009 (ip), vehicle: water 115 % of control | dose: 200.0 mg/kg/injection, schedule: Q04DX003 (ip), vehicle: water 96 % of control | dose: 400.0 mg/kg/injection, schedule: Q01DX009 (ip), vehicle: water 121 % of control | dose: 400.0 mg/kg/injection, schedule: Q04DX003 (ip), vehicle: water 102 % of control

CCOC(=O)C(CCC#N)(CCC#N)C(C)=O
inactive: [2] 105 % of control | [3] 94 % of control

COC1OC(CO)C(O)C(O)C1NC(C)=O (centres undefined)
inactive: [4] 106 % of control | [5] 103 % of control | [6] 104 % of control

Clc1cc(-c2ccccc2Br)nc2ccccc12
inactive: [4] 90 % of control | [5] 90 % of control | [6] 88 % of control

CC12CCC(O)CC1CCC1C3CC/C(=C\c4ccco4)C(=O)C3CCC12 (centres undefined)
inactive: dose: 50.0 mg/kg/injection, schedule: Q01DX001 (sc), vehicle: steriod suspending solution 105 % of control | dose: 100.0 mg/kg/injection, schedule: Q01DX001 (sc), vehicle: steriod suspending solution 89 % of control | dose: 200.0 mg/kg/injection, schedule: Q01DX001 (sc), vehicle: steriod suspending solution 91 % of control

Ic1c2ccccc2cc2ccccc12
inactive: dose: 50.0 mg/kg/injection, schedule: Q04DX002 (ip), vehicle: Klucel (hydroxypropylcellulose) (HPC) 95 % of control and 123 % of control | dose: 100.0 mg/kg/injection, schedule: Q04DX002 (ip), vehicle: Klucel (hydroxypropylcellulose) (HPC) 103 % of control and 86 % of control | dose: 200.0 mg/kg/injection, schedule: Q04DX002 (ip), vehicle: Klucel (hydroxypropylcellulose) (HPC) 108 % of control and 92 % of control | dose: 400.0 mg/kg/injection, schedule: Q04DX002 (ip), vehicle: Klucel (hydroxypropylcellulose) (HPC) 92 % of control

CCOC(=O)CC(=O)C1CCCCC1
inactive: dose: 50.0 mg/kg/injection, schedule: Q01DX001 (ip), vehicle: carboxymethylcellulose (CMC) 95 % of control | dose: 100.0 mg/kg/injection, schedule: Q01DX001 (ip), vehicle: carboxymethylcellulose (CMC) 95 % of control | dose: 200.0 mg/kg/injection, schedule: Q01DX001 (ip), vehicle: carboxymethylcellulose (CMC) 97 % of control | dose: 400.0 mg/kg/injection, schedule: Q01DX001 (ip), vehicle: carboxymethylcellulose (CMC) 95 % of control

Oc1c(Cl)cc(N=Cc2ccc(N(CCCCl)CCCCl)cc2Cl)cc1Cl
inactive: [1] 101 % of control | [2] 104 % of control | [3] 101 % of control | dose: 400.0 mg/kg/injection, schedule: Q04DX003 (ip), vehicle: Klucel (hydroxypropylcellulose) (HPC) 98 % of control

CSc1ccc(NC(=O)Nc2ccccc2C(F)(F)F)cc1
inactive: dose: 100.0 mg/kg/injection, schedule: Q01DX009 (ip), vehicle: other 96 % of control | dose: 200.0 mg/kg/injection, schedule: Q01DX009 (ip), vehicle: other 96 % of control | dose: 400.0 mg/kg/injection, schedule: Q01DX009 (ip), vehicle: other 95 % of control

CC(O)C(NC(=O)OCc1ccccc1)C(=O)NC(CO)C(=O)NN (stereo not drawn) (Cbz-Thr-Ser-NHNH2; configuration not given here)
inactive: dose: 5.0 mg/kg/injection, schedule: Q01DX001 (ip), vehicle: saline 103 % of control | dose: 10.0 mg/kg/injection, schedule: Q01DX001 (ip), vehicle: saline 103 % of control | dose: 20.0 mg/kg/injection, schedule: Q01DX001 (ip), vehicle: saline 103 % of control | dose: 40.0 mg/kg/injection, schedule: Q01DX001 (ip), vehicle: saline 105 % of control | dose: 80.0 mg/kg/injection, schedule: Q01DX001 (ip), vehicle: saline 97 % of control | [4] 103 % of control and 98 % of control | [5] 95 % of control

COc1ccc(CNCCNCc2ccc(OC)c(OC)c2)cc1OC
inactive: dose: 100.0 mg/kg/injection, schedule: Q01DX009 (ip), vehicle: saline with Tween-80 97 % of control | dose: 100.0 mg/kg/injection, schedule: Q04DX003 (ip), vehicle: saline with Tween-80 100 % of control | dose: 200.0 mg/kg/injection, schedule: Q01DX009 (ip), vehicle: saline with Tween-80 102 % of control | dose: 200.0 mg/kg/injection, schedule: Q04DX003 (ip), vehicle: saline with Tween-80 93 % of control | dose: 400.0 mg/kg/injection, schedule: Q01DX009 (ip), vehicle: saline with Tween-80 106 % of control | dose: 400.0 mg/kg/injection, schedule: Q04DX003 (ip), vehicle: saline with Tween-80 105 % of control

Cc1ccn2c(=O)cc(O)nc2c1
inactive: dose: 50.0 mg/kg/injection, schedule: Q01DX001 (ip), vehicle: saline 101 % of control | [4] 98 % of control | [5] 92 % of control | [6] 98 % of control

O=C(OC1c2cccc3cccc(c23)C1O)c1ccccc1 (centres undefined)
inactive: dose: 100.0 mg/kg/injection, schedule: Q04DX003 (ip), vehicle: other 95 % of control | dose: 200.0 mg/kg/injection, schedule: Q04DX003 (ip), vehicle: other 93 % of control | dose: 400.0 mg/kg/injection, schedule: Q04DX003 (ip), vehicle: other 90 % of control

c1ccc2c(c1)N=C1CCCC3CCCC123 (centres undefined)
inactive: dose: 100.0 mg/kg/injection, schedule: Q## X003 (ip), vehicle: saline 98 % of control | dose: 200.0 mg/kg/injection, schedule: Q## X003 (ip), vehicle: saline 104 % of control | dose: 400.0 mg/kg/injection, schedule: Q## X003 (ip), vehicle: saline 96 % of control

CC1(C)N=C(N)N=C(N)N1c1cccc(CCCc2ccccc2)c1
inactive: dose: 1.56 mg/kg/injection, schedule: Q01DX001 (ip), vehicle: saline 98 % of control | dose: 3.12 mg/kg/injection, schedule: Q01DX001 (ip), vehicle: saline 91 % of control | dose: 6.25 mg/kg/injection, schedule: Q01DX001 (ip), vehicle: saline 88 % of control | dose: 25.0 mg/kg/injection, schedule: Q01DX001 (ip), vehicle: saline 89 % of control

COP(=O)(OC)OCc1cnc(SC)nc1N
inactive: dose: 25.0 mg/kg/injection, schedule: Q01DX009 (ip), vehicle: saline 100 % of control | dose: 25.0 mg/kg/injection, schedule: Q04DX003 (ip), vehicle: saline 100 % of control | dose: 50.0 mg/kg/injection, schedule: Q01DX009 (ip), vehicle: saline 102 % of control | dose: 50.0 mg/kg/injection, schedule: Q04DX003 (ip), vehicle: saline 105 % of control | dose: 100.0 mg/kg/injection, schedule: Q01DX009 (ip), vehicle: saline 98 % of control | dose: 100.0 mg/kg/injection, schedule: Q04DX003 (ip), vehicle: saline 101 % of control and 102 % of control

O=C1C(Cl)=C(N2CC2)C(=O)c2ccccc21
inactive: dose: 2.5 mg/kg/injection, schedule: Q01DX009 (ip), vehicle: Klucel (hydroxypropylcellulose) (HPC) 107 % of control | dose: 5.0 mg/kg/injection, schedule: Q01DX009 (ip), vehicle: Klucel (hydroxypropylcellulose) (HPC) 93 % of control
